The test has as its target T1, cynomolgus IL-7Rα (Macaca fascicularis, UniProt Q38IC7).
T1 construct: cynomolgus IL-7Rα(aa 21–235)-His6, Sino Biological Cat# 90332-C08H; His6 (C); purchased Sino Biological 90332-C08H
T1 sequence (Q38IC7 21-235): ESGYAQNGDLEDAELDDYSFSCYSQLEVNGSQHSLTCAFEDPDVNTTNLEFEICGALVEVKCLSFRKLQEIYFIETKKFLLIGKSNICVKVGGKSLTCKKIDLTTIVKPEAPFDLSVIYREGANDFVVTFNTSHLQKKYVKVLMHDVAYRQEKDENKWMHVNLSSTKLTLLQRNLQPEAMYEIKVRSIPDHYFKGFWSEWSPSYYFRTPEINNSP
Nature of the test: Competition binding ELISA, cynomolgus IL-7Rα ECD. As to conditions: immobilized cynomolgus IL-7Rα-His6 ECD; biotinylated peptide/NA-HRP tracer; read-out: Competition ELISA IC50, IL-7Rα Cyno. The source says:
(A, B) Determination of IC50 values in a competition ELISA for compound binding to human and cyno IL-7Rα and γc. The assay format is IL-7Rα-(His)6-tagged ECD or Fc-γc ECD immobilized on 96-well plates. Tracers are C-terminal biotinylated forms of the reference IL-7Rα and γc peptide ligands, each pre-complexed with Neutravidin-HRP (NA-HRP). (C, D) Label-free measurement of the equilibrium dissociation constant (KD) for peptide binding to IL-7Rα and γc extracellular domains with peptides was performed by biolayer interferometry as detailed in methods. Red lines depict 1:1 binding fit from Gator™ software. Blue lines represent individual BLI sensogram data taken every 0.1 seconds.
Binding was determined using a competition binding ELISA. Microtiter plates (Immulon 4HBX flat bottom 96-well) were coated with 50 μL of […] human ECDs: IL-7Rα(aa 21–236)-His6, Sino Biological Cat# 10975-H08H; cynomolgus IL-7Rα(aa 21–235)-His6, Sino Biological Cat# 90332-C08H; human IL-2Rα(aa 23–254)-Fc, Acro Cat# ILG-H5256; cynomolgus IL-2Rα(aa 23–254)-Fc, made in-house, in PBS overnight at 4°C. […] Plates were washed with cold wash buffer, and bound tracer was detected using TMB One Component HRP substrate and Stop Solution (Surmodics Cat# TMBW-1000-01 and LSTP-0100-01). Absorbance at 450 nm was read using Agilent BioTek Synergy HTX Multimode Reader.

Results on one substance are retold here after article PMC10597491 (PLOS ONE, 2023).

Bridge positions count the residues as written; N and C are the ends. Ends that are not written are not given here.

In the case of “Ac-GWGIPWCTLDPGSLQCAWLGKHGGGGSGGVVCQDWEGVELCWQGG (disulfide 7-16, 32-41) [MDK1472]”, the IC50 was 190 nM.
